Measurements from patent publication US8916679B2, “Peptides binding to the dimer interface of thymidylate synthase for the treatment of cancer” (Universita′ degli Studi di Modena e Reggio Emilia, priority 2009, dated 2014).
Where no end group is shown, it is not given here.

What was measured:
[1] = target: T1, hTS enzyme (human Thymidylate synthase) (Homo sapiens, UniProt P04818); assay: Peptidic inhibitor Ki value determination vs dUMP and vs mTHF; type: biochemical; conditions: Lineweaver-Burk analysis, FIG. 4
T1 construct: made in house; host or cells: E. coli (printed as 'BL21 strain DH5α'), vector pQE80L
T1 sequence (P04818 with tags, fused parts or gaps): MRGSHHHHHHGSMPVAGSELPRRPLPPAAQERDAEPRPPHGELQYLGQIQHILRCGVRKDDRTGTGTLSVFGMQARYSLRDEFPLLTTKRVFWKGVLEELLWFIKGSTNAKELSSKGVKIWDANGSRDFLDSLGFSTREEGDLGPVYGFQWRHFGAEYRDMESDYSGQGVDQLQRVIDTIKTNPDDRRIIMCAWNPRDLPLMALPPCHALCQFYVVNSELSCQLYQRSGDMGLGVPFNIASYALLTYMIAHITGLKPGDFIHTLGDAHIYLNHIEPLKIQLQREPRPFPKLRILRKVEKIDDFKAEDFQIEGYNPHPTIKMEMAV

A2780 cells = assay: Cell growth assay (crystal violet dye); type: cell-based, human; conditions: 10 μM, FIG. 7
Method: Cultures were equilibrated with humidified 5% CO2 in air at 37° C.
Cells were seeded into 24-well plates and allowed to attach overnight. Peptides were delivered into cells by means of a peptide delivery system, following the procedures indicated by the manufacturer. On selected days, after removal of the tissue culture medium, cell growth was determined by a modification of the crystal violet dye assay. The extracted dye was proportional to cell number.

| Sequence | type of inhibition (kinetic data) [1] | relative activity against A2780 cells (A2780 cells) |
| --- | --- | --- |
| DFIHTLGD [SEQ ID NO: 1] | competitive inhibition pattern |  |
| YVVNSELS [SEQ ID NO: 44] |  | particularly active |
